The Kd is the constant that tells how readily two partners part at equilibrium. Read a low Kd as higher affinity.

Converted amounts (≈) assume the structure as drawn.

These results are taken from article PMC12548414 (Journal of Bacteriology, 2025).

Test [1] has as its system T1, E. coli pLC1021 (luc-trpAt trans-translation reporter).
T1 construct: pLC1021 luc-trpAt reporter strain
Also noted: species or system Escherichia coli pLC1021; luc-trpAt non-stop luciferase reporter; luminescence rises when trans-translation is inhibited; normalized to KKL-35 and DMSO. Conditions: 2 h, 20 µM. On the procedure: The luciferase screen was performed as previously described ([16]). […] 48 µL of cells was transferred to white 96-well plates, and 2 µL DMSO or 20 µM compound, or 20 µM KKL-35 was added. Plates were sealed with adhesive film, vortexed gently to mix, and incubated at room temperature for 2 h. 50 µL Bright-Glo reagent (Promega, Madison, WI) was added to each well, and the plates were sealed with adhesive film, vortexed vigorously, and incubated for an additional 10 min at room temperature. Luminescence was measured at 560 nm using a SpectraMax i3 microplate reader and readings for each plate were normalized to the average of three KKL-35-treated wells (positive control) and three DMSO-treated wells (negative control) within the plate to correct for plate-to-plate and day-to-day variations. Results from at least two biological repeats were averaged, and GraphPad Prism was used to plot the data. We screened a library of 1,601 anti-tubercular small molecules for their ability to inhibit trans-translation using a luciferase reporter in Escherichia coli. In this luc-trpAt reporter, the firefly luciferase gene has a trpA transcriptional terminator before the stop codon, such that luciferase is translated from a non-stop mRNA ([16]). When trans-translation is active, the luciferase will be tagged and degraded, but when trans-translation is inhibited, active luciferase will accumulate, resulting in a luminescent signal when luciferin is added. Luciferase activity was measured after growth in the presence of compounds from the library at 20 µM, using the known trans-translation inhibitor KKL-35 as a positive control (Fig. 1A) ([16], [17]). Compounds with activity one standard deviation above the median were scored as positive (Fig. S1 and Table S1).

The target of test [2] is T2, ribosomal protein bL12 (Escherichia coli, UniProt P0A7K2).
T2 construct: gene rplL
T2 sequence (P0A7K2 2-121): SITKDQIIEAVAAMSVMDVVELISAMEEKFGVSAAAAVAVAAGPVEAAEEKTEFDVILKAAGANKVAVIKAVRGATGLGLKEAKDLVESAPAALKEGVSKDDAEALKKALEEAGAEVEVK
Briefly: biochemical. The format is binding.

The next test deals with B. anthracis. The experiment in a line: microbe, parasite or virus in culture. Conditions: Bacillus anthracis, 20 h, read-out: MIC.
In a further test the test system is T3, E. coli ΔtolC.
T3 construct: ΔtolC
The experiment in a line: microbe, parasite or virus in culture. Also noted: species or system Escherichia coli ΔtolC; broth microdilution MIC, lowest concentration with no visible growth. As to conditions: Escherichia coli, 20 h, read-out: MIC.

The target of test [3] is T4, ribosomal protein bL12 (Mycobacterium tuberculosis, UniProt P9WHE3).
T4 construct: gene rplL; 6His-tagged M. tuberculosis bL12
T4 sequence (P9WHE3 1-130): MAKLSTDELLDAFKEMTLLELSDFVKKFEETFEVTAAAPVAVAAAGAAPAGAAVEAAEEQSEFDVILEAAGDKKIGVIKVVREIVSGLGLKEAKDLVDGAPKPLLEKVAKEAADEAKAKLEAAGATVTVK
The experiment in a line: biochemical. The format is binding.

For another test, the system named is M. tuberculosis. The experiment in a line: microbe, parasite or virus in culture. Also noted: species or system Mycobacterium tuberculosis H37Rv ΔRD1 ΔpanCD. Conditions: Mycobacterium tuberculosis, 168 h, read-out: MIC.

On to `CC(C)[C@H]1OC(=O)[C@H](Cc2ccccc2)N(C)C(=O)[C@@H](C(C)C)OC(=O)[C@H](Cc2ccccc2)N(C)C(=O)[C@@H](C(C)C)OC(=O)[C@H](Cc2ccccc2)N(C)C1=O` [KKL-0304], for which the “% activation” value in test [1] is 0%.
Regarding `O=C(Nc1nc(NC(=O)c2ccco2)n(-c2ccccc2)n1)c1ccccc1` [KKL-1005, N-(5-benzamido-2-phenyl-1,2,4-triazol-3-yl)furan-2-carboxamide], the Kd on ribosomal protein bL12 [2] was found to be 8 ± 2 µM; at ribosomal protein bL12 [3] it was 4 ± 0.2 µM. The MIC with B. anthracis was 9.3 µg/mL (≈ 24.9 µM); with E. coli ΔtolC, 9.3 µg/mL (≈ 24.9 µM); in the test with M. tuberculosis it was 4.7 µg/mL (≈ 12.6 µM).
Regarding `CCc1ccc([C@@H]2C[C@H](C(F)(F)F)n3ncc(C(=O)NCc4ccc(OC)cc4)c3N2)cc1` [KKL-1692], the “% activation” value in test [1] was 0%.
Same read-out and setting: the figure for `Cc1cccc(-c2nc(Nc3ccncn3)c3sccc3n2)n1` [KKL-1695] is 0%; for `Cc1cccc(-c2nc(Nc3ccncn3)c3c(C)csc3n2)n1` [KKL-1712] it is 6%; for `O=C(NC12CC3CC(CC(C3)C1)C2)c1cc2cc(Cl)ccc2[nH]1` [KKL-1781] it is 0%.
In the case of `c1cc2c(s1)CCOC21CCN(Cc2ccc3c(c2)OCCO3)CC1` [KKL-1815], the “% activation” value in test [1] was 0%.
For the molecule `COc1ccc(CCNc2cc(-c3ccccc3)nc3ncnn23)cc1` [KKL-1831], the “% activation” value in test [1] was determined as 3%.
On to `Cc1ccc2nc(C)c(C(=O)NCc3cccs3)n2c1` [KKL-1863], for which the “% activation” value in test [1] is given as 4%.
On to `CNc1nc(SC)nc2ccccc12` [KKL-1869], for which the “% activation” value in test [1] is on record as 0%.
